# Experimental data reported in patent publication US7514529B2, “Peptide mimotopes of lipooligosaccharide from nontypeable Haemophilus influenzae as vaccines” (The United States of America as represented by the …, priority 2003, dated 2009).
# System: target rabbit anti-LOS antibody
# Experiment: Peptide ELISA (NucleoLink strips): synthetic peptides binding the target anti-LOS antibody
# Settings: for Binding reactivity (OD405): 5 μg peptide coupled to strip, 0.4 μg/well target antibody, average of duplicates; for Binding reactivity of synthetic peptides to target anti-LOS antibody (in words): peptide-coated ELISA
# Description: Four peptides were synthesized with a spacer (GGGS) at each C-terminus (Genemed Synthesis, Inc., San Francisco, Calif.). Binding reactivity of the synthetic peptides to the target anti-LOS antibody was tested with a peptide ELISA using Nunc NucleoLink™ Strips (Fisher Scientific, Pittsburgh, Pa.). Following the instructions of the product with modifications, the strips were coated covalently with its amino groups to the C-terminal carboxyl groups of the synthetic peptides by a coupling reagent, [1-Ethyl-3-(3-dimethylaminopropyl) carbodiimide HCl] (EDC, Pierce). Briefly, peptides and 0.1 M 1-methyl-imidazole (Meim) (Sigma-Aldrich) at pH 7 were pre-cooled on ice, and a 100 μl of individual peptide solution with 5 μg of peptide in 10 mM MeIm was prepared in a well of strips on ice. This peptide solution (75 μl) was mixed with 25 μl of freshly prepared 0.2 M EDC in 10 mM MeIm in another well of the strips. The strips were sealed and incubated at 50° C. for 5 h. After removing the reaction mixture, the strips were soaked with washing buffer (freshly prepared 0.25% SDS in 0.4 N NaOH and warmed at 50° C.) for 5 min and emptied. This step was performed for three times, followed by another three washings without the 5-min soaking. After removing the washing buffer, the strips was washed thoroughly with deionized water. The following steps were the same as described in the LOS ELISA (Gu et al. 1996 Infect Immun 64:4047). After blocking with 1% BSA in PBS, the target anti-LOS antibody was added in the amount of 0.4 μg/well followed by a goat anti-rabbit IgG alkaline phosphatase conjugate. The binding reactivity of the synthetic peptides to the target anti-LOS antibody was evaluated by OD405 values at 30 min after adding a substrate.
Sequence,Binding reactivity (OD405),Binding reactivity of synthetic peptides to target anti-LOS antibody (in words)
"TLAHHKKPWILR [Peptide 5, control peptide from an unrelated clone, reference compound]",0.33,
NMMRFTELSTPS [Peptide 4],0.99,higher binding reactivity
NMMKYISPPIFL [Peptide 3],1.11,higher binding reactivity
NMMRFTSQPPNN [Peptide 1],0.40,did not show good antigenic mimic of the LOS
NMMNYIMDPRTH [Peptide 2],2.52,higher binding reactivity
